According to PMC7956620 (Molecules, 2021):
Positions count from the first letter of the chain named.

Key:
[1] = system: 5-HT3A receptor I228A mutant; assay: two-electrode voltage clamp, I228A mutant receptor in Xenopus oocytes; format: cell-based, human; settings: 100 µM chanoclavine
Procedure: (§1) The site-directed mutation of one or two amino acids was performed using sense and antisense primers and Pfu polymerase (QuickChange Site-Directed Mutagenesis Kit; Agilent, Santa Clara, CA, USA) and amplified by polymerase chain reaction (PCR) to increase the target domain. After removing the existing methylated cDNA using Dpn Ⅰ, the PCR products were transformed into Escherichia coli strain DH5α. The cDNA of the 5-HT3A receptor was linearized by Xho Ⅰ at the end of the multi-cloning site, followed by transcription using T7 polymerase and a transcription kit (mMESSAGE mMACHINE T7 Transcription Kit; Thermo Fisher Scientific, Waltham, MA, USA). […]
(§2) To isolate oocytes, female Xenopus laevis were put into a container filled with ice and left for about one hour. […] When the Xenopus oocytes were ready for injection, 50 ng of mRNA was injected with a nanoliter injector (Drummond Scientific, Vernon Hills, IL, USA). […]
(§3) The oocytes in which mRNA was expressed during the incubation period allowed for the estimation of channel or receptor properties for observing drug and ligand potential interactions using a two-electrode voltage clamp (OC-725C; Warner Instruments, Hamden, CT, USA) and Digidata (1322A; Molecular Devices, Sunnyvale, CA, USA). […] The voltage and current electrodes were filled with 3 M KCl (0.3–0.7 MΩ) and analyzed at a −80 mV holding potential. […]

[2] = target: T1, 5-HT3A receptor L156A mutant (Homo sapiens, UniProt P46098, L151A); assay: two-electrode voltage clamp, L156A mutant receptor in Xenopus oocytes; format: cell-based; settings: 100 µM chanoclavine, read-out: Inhibition Percentage (%)
T1 construct: host or cells: Xenopus laevis oocytes injected with in vitro transcribed mRNA
T1 sequence (P46098 24-478 L151A): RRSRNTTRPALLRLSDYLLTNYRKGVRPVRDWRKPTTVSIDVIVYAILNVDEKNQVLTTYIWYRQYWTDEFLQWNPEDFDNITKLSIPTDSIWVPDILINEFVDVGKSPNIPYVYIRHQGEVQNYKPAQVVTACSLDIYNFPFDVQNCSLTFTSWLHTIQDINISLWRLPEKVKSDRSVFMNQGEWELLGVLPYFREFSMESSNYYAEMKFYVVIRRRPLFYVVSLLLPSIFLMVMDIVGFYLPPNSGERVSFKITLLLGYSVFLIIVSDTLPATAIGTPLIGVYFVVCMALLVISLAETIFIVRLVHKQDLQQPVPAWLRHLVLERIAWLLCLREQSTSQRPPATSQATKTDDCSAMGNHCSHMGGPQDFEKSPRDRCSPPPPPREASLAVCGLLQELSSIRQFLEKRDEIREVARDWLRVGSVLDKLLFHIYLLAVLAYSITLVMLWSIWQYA
Procedure: as §1, §2, §3

mice = system: mice; design: method as in PMID 31052510; settings: mice ref 32; cited from earlier work
[3] = target: T2, 5-HT3A receptor Y91A mutant (Homo sapiens, UniProt P46098, Y86A); assay: two-electrode voltage clamp, Y91A mutant receptor in Xenopus oocytes; format: cell-based; settings: 100 µM chanoclavine, read-out: Inhibition Percentage (%)
T2 construct: host or cells: Xenopus laevis oocytes injected with in vitro transcribed mRNA
T2 sequence (P46098 24-478 Y86A): T1 sequence (P46098 24-478 L151A) with Y63A, A128L
Procedure: as §1, §2, §3

[4] = target: T3, 5-HT3A receptor R196A mutant (Homo sapiens, UniProt P46098, R191A); assay: two-electrode voltage clamp, R196A mutant receptor in Xenopus oocytes; format: cell-based; settings: 100 µM chanoclavine, read-out: Inhibition Percentage (%)
T3 construct: host or cells: Xenopus laevis oocytes injected with in vitro transcribed mRNA
T3 sequence (P46098 24-478 R191A): T1 sequence (P46098 24-478 L151A) with A128L, R168A
Procedure: as §1, §2, §3

For `CN[C@@H]1Cc2c[nH]c3cccc(c23)[C@H]1/C=C(\C)CO` [chanoclavine], the “Inhibition Percentage (%)” value [1] is listed as 66.16 ± 9.2%, the inhibition at 100 µM [2] is listed as 46.1 ± 6.5% and the “toxicity (gross hematology, blood chemistry, pathology, histology)” value (mice) is listed as “low toxicity”. The inhibition at 100 µM [3] was 50.2 ± 5.1% and the inhibition at 100 µM [4] was 82.1 ± 2.5%.
